In PMC9143506, “Investigating the Mechanisms behind the Positive Food Effect of Abiraterone Acetate: In Vitro and Rat In Situ Studies” (Pharmaceutics, 2022):
Values after ≈ are worked out from the molar mass of the structure shown. Like-named read-outs stand apart in the source and are kept apart here. Values belong to the compound of their own block, whether it stands above or below them.

Assays:
[1] = PAMPA
Experimental: (§2) To investigate the impact of TG and lipid digestion products (FFA, MG) on the passive permeation of abiraterone, transport experiments were performed in the AMI-system according to Berben et al. [13]. In short, a regenerated cellulose membrane (molecular weight cut-off 2 kDa) was mounted between two plastic rings resulting in a surface area of 4.91 cm^2. Membrane integrity was checked by water leakage. The AMI-system was placed in a six-well plate on a shaking incubator at 37 °C and 300 rpm. A 1:3 ratio was maintained between donor and acceptor volumes by applying 2 mL of TPGS-solution to the acceptor compartment and 665 µL of the donor solution of abiraterone in the media prepared as described above. The initial concentration of abiraterone depended on the medium to ensure donor concentrations below the solubility and sufficient permeation to quantify the permeated amount in the acceptor compartment: 10 μM in FaSSIF, 30 μM in FeSSIF*, FeSSIF*-Th and FeSSIF*-E, and 150 μM in FeSSIF*-FM, FeSSIF*-FMT and FeSSIF*-FMTh. Samples (100 µL) were taken from the acceptor compartment at 15, 30, 45, 60 and 120 min and diluted 1:1 in MeOH:H2O (50:50 v/v) containing IS. Subsequently, the withdrawn volumes were replaced by fresh TPGS-solution.
(§3) The apparent permeability coefficient (Papp) was calculated from the cumulative amount of abiraterone appearing in the acceptor compartment according to Equation (1):(1) Papp=dQ/dt×1/A×Cdonor where dQ/dt is the amount of abiraterone appearing in the acceptor compartment over time, A represents the effective surface area available for transport, and Cdonor is the initial concentration in the donor compartment. Data are represented as mean ± standard deviation (SD).

[2] = physchem; conditions: 37 °C, Apparent solubility, micellar
Experimental: (§4) The apparent solubility (i.e., including both molecules freely dissolved in the aqueous phase and molecules solubilised in colloidal structures and lipid droplets [12]) of abiraterone and abiraterone acetate was determined in the different simulated fed state media (i.e., FeSSIF*, FeSSIF*-FM, FeSSIF*-FMT, FeSSIF*-FMTh, FeSSIF*-Th and FeSSIF*-E) using the shake flask method. Approximately 0.3 mg of compound was added to microcentrifuge tubes containing 0.3 mL of the abovementioned media and placed in a prewarmed shaking incubator (37 °C, 175 rpm; KS 4000 I control incubator from Ika (Staufen, Germany)) for 24 h. To the media containing lipid digestion products, 0.9 mg of compound was added instead of 0.3 mg. All solubility experiments were performed in triplicate. Afterwards, samples were centrifuged to separate the solid phase from the dissolved part (20.817 g, 30 min at 37 °C). […] To determine the solubility in the micellar layer, the top lipid layer was aspirated upon which the supernatant was diluted in MeOH:H2O (50:50 v/v) containing IS (abiraterone-d4 and abiraterone acetate-d4, final concentration 50 nM). To determine the solubility in the total sample, the entire supernatant was transferred into a new microcentrifuge tube and vortexed upon which the supernatant was diluted in MeOH:H2O (50:50 v/v) containing IS to fit the linear range.

[3] = 1000 mg a day; cited from earlier work
[4] = test system: porcine pancreatin; test: Enzymatic conversion of abiraterone acetate to abiraterone by porcine pancreatin; type: in vitro ADME; conditions: porcine pancreatin 0.83 mg/mL (same with esterases), 150 μM
Experimental: (§1) The conversion of abiraterone acetate to abiraterone was studied in the abovementioned media using either 80 IU/mL esterase from porcine liver or 0.83 mg/mL porcine pancreatin. A total of 150 µM abiraterone acetate (DMSO stock solution) was added to 2 mL of the media in a 12-well plate and placed in a prewarmed shaking incubator (37 °C, 300 rpm; Thermostar, BMG Labtech, Offenburg, Germany). Samples were obtained in triplicate at predetermined time points and centrifuged immediately (20.817 g, 5 min). When lipids were present, drug concentrations were determined in both total (lipid + micellar) and micellar layer as described above.

[5] = test system: esterase from porcine liver; test: Enzymatic conversion of abiraterone acetate to abiraterone by porcine esterases; type: in vitro ADME; conditions: 80 IU/mL porcine esterases
Experimental: as §1

[6] = 24 h, pH 6.5
Experimental: as §4

[7] = set-up: method as in PMID 25592324; conditions: FaSSIF, pH 6.5; cited from earlier work
[8] = cited from earlier work
[9] = Passive permeation in the artificial membrane insert system (AMI-system)
Experimental: as §2, §3

[10] = Apparent solubility, shake flask method in simulated intestinal media; conditions: 37 °C, pH 6.5, 37 °C, mean ± SD (n = 3)
Experimental: as §4

[11] = test system: small intestine (ileum); test: Rat in situ intestinal perfusion with mesenteric blood sampling
[12] = FeSSIF*-FM, FeSSIF*-FMT and FeSSIF*-FMTh
[13] = abiraterone acetate suspension 0.5 mg/mL, 80 IU/mL esterases

Permeation across the cellulose membrane [1]: too low
solubility at 24 h ([2]; pH 6.5, fessif, thermodynamic from solid): 148 µM
solubility at 24 h ([2]; pH 6.5, thermodynamic from solid): 2110 µM
Degradation in FeSSIF* compared to FeSSIF*-E [4]: degraded faster
Time to almost full conversion to abiraterone ([5]; FaSSIF and FeSSIF*, 150 µM, 37 °C): ≤ 30 min
Conversion in media containing lipid degradation products [5, 12]: very limited
Degradation in media with undigested TG ([5]; FeSSIF*-Th and FeSSIF*-E): slower degradation
Increase of concentration in the total sample in FeSSIF*-FMTh compared to FeSSIF*-FMT [6]: 2 fold
Increase of solubility in FeSSIF*-FM compared to FeSSIF* [6]: 14 fold
Structure (SMILES): CC(=O)O[C@H]1CC[C@@]2(C)C(=CC[C@@H]3[C@@H]2CC[C@]2(C)C(c4cccnc4)=CC[C@@H]32)C1 [abiraterone acetate]
Excretion of the oral dose [3]: largely excreted in the faeces
Apparent solubility, micellar [7]: 64.6 (±5.2) ^1 µM
Log P [8]: 5.12

Structure (SMILES): C[C@]12CC[C@H](O)CC1=CC[C@@H]1[C@@H]2CC[C@]2(C)C(c3cccnc3)=CC[C@@H]12 [abiraterone]
Permeability (Papp) in FaSSIF ([9]; FaSSIF, 10 μM donor, compared to Papp values of 14 compounds of ref 13): low permeability
Lowering of permeability in FeSSIF* compared to FaSSIF ([9]; FeSSIF* vs FaSSIF): 2.6 fold
Change of passive permeability with FFA and MG [9, 12]: significant decrease
Effect of addition of TG to FeSSIF* on Papp ([9]; FeSSIF*-Th and FeSSIF*-E vs FeSSIF*): did not have an effect
solubility at 24 h ([10]; FeSSIF*, micellar, pH 6.5, fessif, thermodynamic from solid): 32.7 µM (≈ 11.4 µg/mL)
solubility at 24 h ([10]; FeSSIF*-E, micellar layer of the supernatant, pH 6.5, thermodynamic from solid, micellar layer): 22 µM (≈ 7.69 µg/mL)
solubility at 24 h ([10]; FeSSIF*-E, total sample (micellar + lipid layer), pH 6.5, thermodynamic from solid, total sample (micellar + lipid layer), FeSSIF*-E): 39 µM
solubility at 24 h ([10]; FeSSIF*-FM, micellar, pH 6.5, thermodynamic from solid): 176 µM (≈ 61.5 µg/mL)
solubility at 24 h ([10]; FeSSIF*-FMT, micellar layer of the supernatant, pH 6.5, thermodynamic from solid, micellar layer): 161 µM (≈ 56.3 µg/mL)
solubility at 24 h ([10]; FeSSIF*-FMT, total sample (micellar + lipid layer), pH 6.5, thermodynamic from solid, total sample (micellar + lipid layer), FeSSIF*-FMT): 199 µM
solubility at 24 h ([10]; FeSSIF*-FMTh, micellar layer of the supernatant, pH 6.5, thermodynamic from solid, micellar layer): 158 µM (≈ 55.2 µg/mL)
solubility at 24 h ([10]; FeSSIF*-FMTh, total sample (micellar + lipid layer), pH 6.5, thermodynamic from solid, total sample (micellar + lipid layer), FeSSIF*-FMTh): 221 µM
solubility at 24 h ([10]; FeSSIF*-Th, micellar layer of the supernatant, pH 6.5, thermodynamic from solid, micellar layer): 31 µM (≈ 10.8 µg/mL)
solubility at 24 h ([10]; FeSSIF*-Th, total sample (micellar + lipid layer), pH 6.5, thermodynamic from solid, total sample (micellar + lipid layer), FeSSIF*-Th): 50 µM
Increase of solubility in FeSSIF*-FM compared to FeSSIF* [6]: 5 fold
Apparent solubility, micellar [7]: 12.7 (±4.2) ^1 µM
Supersaturation in the perfusate ([11]; FaSSIF and FeSSIF*, entire course of the experiment): apparent supersaturation
Supersaturation in the perfusate ([11]; FeSSIF*-FM, FeSSIF*-FMT, FeSSIF*-FMTh): No supersaturation was observed
Absorptive flux in media with lipid digestion products ([11]; FeSSIF*-FM, FeSSIF*-FMT, FeSSIF*-FMTh, abiraterone acetate suspension 0.5 mg/mL, 80 IU/mL esterases): comparable to the flux in FaSSIF
Abiraterone AUC0–60min in the perfusate, FeSSIF* compared to FaSSIF [11, 13]: much higher
Abiraterone flux towards the mesenteric vein, FeSSIF* compared to FaSSIF [11, 13]: increased
Absorptive flux in FeSSIF*-E and FeSSIF*-Th compared to FaSSIF [11, 13]: increased
Absorptive flux in FeSSIF*-Ed compared to FaSSIF and FeSSIF*-FMT ([11]; ongoing lipolysis, pancreatin 0.83 mg/mL, abiraterone acetate suspension 0.5 mg/mL): substantially higher
Log P ([8]; quoted in the discussion of solubility, no reference given): 3.97
